From patent US5486511A, “4-amino-17β-(cyclopropyloxy)androst-4-en-3-one, 4-amino-17β-(cyclopropylamino)androst-4-en-3-one and related compounds as C17-20 lyase and 5α-reductase” (Merrell Dow Pharmaceuticals Inc., priority 1994, dated 1996)

Target: T1, cynomolgus monkey C17,20 lyase (Macaca fascicularis, UniProt Q2XVA1)
T1 construct: microsomes were isolated from human, cynomolgus monkey, dog, rat or athymic nude mouse testicular tissue; from tissue; host or cells: cynomolgus monkey testis microsomes
T1 sequence (Q2XVA1 1-508): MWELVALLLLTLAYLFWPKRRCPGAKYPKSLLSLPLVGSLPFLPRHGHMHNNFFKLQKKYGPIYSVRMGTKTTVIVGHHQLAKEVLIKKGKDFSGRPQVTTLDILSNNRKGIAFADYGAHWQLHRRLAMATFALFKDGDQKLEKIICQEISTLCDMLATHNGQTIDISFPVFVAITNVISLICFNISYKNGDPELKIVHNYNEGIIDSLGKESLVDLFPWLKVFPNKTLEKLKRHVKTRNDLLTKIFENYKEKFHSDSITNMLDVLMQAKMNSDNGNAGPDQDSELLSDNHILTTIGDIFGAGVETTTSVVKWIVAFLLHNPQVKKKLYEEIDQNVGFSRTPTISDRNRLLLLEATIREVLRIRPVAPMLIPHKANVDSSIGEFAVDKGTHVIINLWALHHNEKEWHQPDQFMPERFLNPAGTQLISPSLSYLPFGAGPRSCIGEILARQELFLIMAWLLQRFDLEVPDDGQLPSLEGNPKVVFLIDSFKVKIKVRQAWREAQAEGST
Assay: Inhibition of cynomolgus monkey steroid C17,20 lyase (testicular microsomes), time dependent, Kitz-Wilson
Format: biochemical
Experimental: The activity of the present compounds as inhibitors of steroid C17,20 lyase was established using microsomal preparations of the steroid C17,20 lyase enzyme from human or laboratory animal testes. Human testes used for this purpose were obtained from therapeutic orchiectomies. Specifically, microsomes were isolated from human, cynomolgus monkey, dog, rat or athymic nude mouse testicular tissue. The compound to be tested was dissolved in dimethyl sulfoxide and diluted in 0.05M potassium phosphate buffer to give the desired concentrations of the test compound. The potassium phosphate buffer was at pH 7.4 for the human, monkey and dog lyase assays and at pH 7.2 for the rat and athymic nude mouse lyase assays. Assays also contained 1 mM NADPH, 5 mM glucose-6-phosphate, 1 IU/ml glucose-6-phosphate dehydrogenase (an NADPH regenerating system) and microsomal protein in a total volume of 0.2 mL. Control assays contained all components including dimethyl sulfoxide, but with no test compound. All assays were performed in duplicate. For determination of time dependent C17,20 lyase inactivation, the test compound was incubated with 20 to 60 μg/ml microsomal protein, buffer, and the NADPH regenerating system described above at 34° C. for 0 or 40 minutes. Aliquots (180 μl) were then removed and assayed for enzyme activity by addition to tritiated steroid substrate plus unlabeled steroid substrate to give a 200 μl total assay volume, and were subsequently incubated at 34° C. for 6 minutes. For determination of reversible inhibition by the test compound, the reaction was initiated by addition of substrate. The radiolabeled substrate used for human, cynomolgus monkey and dog lyase was [7-^3 H]-17α-hydroxypregnenolone, 11.2 Ci/mmole, 0.2 μCi total activity per assay. Unlabeled 17α-hydroxypregnenolone was added to give a total concentration of 1.0 μM or 0.3 μM for the human and monkey enzymes, and 0.08 μM for the canine enzyme. […] The radiolabeled substrate used for the rodent enzymes were [1,2-^3 H]-17α-hydroxyprogesterone (40-57 Ci/mmol; 0.2 μCi per assay). Unlabeled 17α-hydroxyprogesterone was added to give a total concentration of 0.1 μM for the rat enzyme (Km =0.1 μM) and 0.03 μM (Km =0.03 μM) for the athymic nude mouse enzyme. The total assay volume was 200 μl. The complete assay was incubated at 34° C. for 6 minutes. Each reaction was stopped by the addition of 5 ml of chloroform:methanol (2:1). […] Radioactivity in the steroid peaks was measured by a Radiomatic Model HS Flo-One detector.
The enzyme activity for each incubate was calculated from the percent conversion of substrate to products, and the results were expressed as percent inhibition of control. […] The Ki and kinact for time dependent inhibitors were determined by graphical analysis of Kitz-Wilson plots. […]

## C[C@]12CC[C@H]3[C@@H](C=CC4=C(N)C(=O)CC[C@@]43C)[C@@H]1CC[C@@H]2OC1CC1 [Compound 1, 4-Amino-17β-(cyclopropyloxy)androsta-4,6-dien-3-one]
  Ki: 339 nM
  kinact: 0.0009 s⁻¹

## C[C@]12CC[C@H]3[C@@H](CCC4=C(N)C(=O)CC[C@@]43C)[C@@H]1CC[C@@H]2OC1CC1 [Compound 2, 4-Amino-17β-(cyclopropyloxy)androst-4-en-3-one]
  Ki: 286 nM
  kinact: 0.0007 s⁻¹
